Common to all, as to assay type: cell-based, human
Test [1] concerns PI3K/AKT and MAPK pathways. The test can be described thus: AKT and MAPK signaling and Bcl-2 expression by western blot. Here is the method: FIG. 12, comprising FIGS. 12A through 12E, is a set of images and graphs showing renalase upregulates Bcl-2, activates PI3K/AKT, ERK, p38, and inhibits JNK. Western blot analysis; P− indicates phosphorylated, activated proteins; signals normalized to GAPDH loading control, then changes in protein phosphorylation (increase=activation, decrease=inhibition) from time 0 are calculated. FIG. 12A: HK-2 and HUVEC cells incubated with renalase for 24 hrs; FIG. 12B: Western blot of time course of AKT and MAPK signaling by renalase, HK-2 cells incubated with renalase for indicated time; changes over baseline in 4c-d are significant (p<0.05); FIG. 12C: Activation of AKT(T308), AKT(5473) and ERK; FIG. 12D: Inhibition of JNK; FIG. 12E: Marked and sustained (60 min) upregulation of p38 by renalase in the presence of cisplatin, western blot for time course, REN=renalase, CP=cisplatin.
MAPK signaling by renalase and renalase peptides. Western blot analysis; ERK: Extracellular signal-Regulated Kinase 1 and 2; JNK: c-Jun N-terminal Kinases; AKT: protein kinase B; p-indicates phosphorylated, activated proteins; representative blot, n=3 (FIG. 20A). Renalase activates AKT (FIG. 20B). Western blot analysis; P− indicates phosphorylated, activated proteins Representative blot, n=3 (FIG. 20B, left panel). Signals normalized to GAPDH loading control; n=3, change over baseline statistically significant (P<0.05) from 1-60 min for ERK, p38 and AKT (T308), and at 30 min only for AKT (S473) (FIG. 20B, right panel). ERK or AKT inhibition abrogates protective effect of RP-H220 (FIG. 20C). Plasma creatinine levels from mice subjected to sham-surgery or to renal ischemia and reperfusion (IR); Renalase WT mice were subjected to sham-surgery or to 30 min renal IR. For mice subjected to renal IR, RP-H220 or vehicle (saline) was injected 10 min prior to renal ischemia. Some animals were pretreated with either the ERK inhibitor PD98059 or the PI3K/AKT inhibitor wortmanin. (N=6-8 per group). *: P<0.05 vs. vehicle-treated mice subjected to sham-surgery; #: P<0.05 vs. vehicle-treated WT mice subjected to renal IR (FIG. 20C).

Test [2] concerns HK-2 cells. The test is described as follows: HK-2 cell necrosis induced with 2 mM H2O2 (LDH release). The note with it: at 2 and 4 hrs. Here is the method: (§1) HK2 cells (human proximal tubular line) obtained from ATTC (Manassas, Va., USA) were cultured in DMEM/F12 supplemented with glutamine, 10% FBS and antibiotics, and were maintained at 37° C. in 5% CO2. Cells were exposed to cisplatin (20 μM) in the presence or absence of renalase for 24 hrs, and cell viability was assessed by the WST1 method (Roche Applied Science, Germany). Cells were then harvested in RIPA buffer (20 mM Tris-HCl pH 7.5, 150 mM NaCl, 1 mM Na2EDTA, 1 mM EGTA, 1% NP-40, 1% sodium deoxycholate, 2.5 mM sodium pyrophosphate, 1 mM β-glycerophosphate, 1 mM Na3VO4, 1 μg/ml leupeptin) supplemented with a protease and phosphatase inhibitor cocktail (Roche Applied Science, Germany). Proteins were separated by SDS-PAGE and Western blotting was carried out using the following antibodies: anti-renalase monoclonal (Desir et al., 2012, J Am Heart Assoc. 1:e002634; (Lee et al., 2013, J Am Soc Nephrol 24:445-455); anti caspase 3 (Cell Signaling Technology, MA, USA) and anti Bcl2 (Thermo Scientific, USA). Necrotic injury in HK-2 cells (ATCC, Manassas, Va.) was induced with exposure to 2 mM H2O2 for 2-8 hr and lactate dehydrogenase (LDH) released into cell culture media was measured as described using a commercial LDH assay kit (Promega, Madison, Wis.) (Lee and Emala, 2002, American journal of physiology. Renal physiology 282:F844-852).

For test [3], the system named is HK-2 cells. The test is described as follows: HK-2 cell cisplatin toxicity (WST-1 viability, western blot). The note with it: 20 μM cisplatin, 24 hrs. Here is the method:
Cultured HK-2 cells were incubated with 20 μM cisplatin for 24 hours with and without recombinant renalase. Renalase expression was examined by Western blot and cell viability (mitochondrial integrity) was determined spectrophotometrically using WST-1, a tetrazolium salt that is cleaved, by mitochondrial dehydrogenases of metabolically active and viable cells, to formazan (420-480 nm) (Boehringer Mannheim, Germany).
as §1
For orientation: Tetrazolium assays rely on reduction of a dye to a coloured formazan, in cell work by metabolically active cells.

Consider “RP H220: histidine tagged RP-220, SEQ ID NO: 4, HHHHHHCIRFVSIDNKKRNIESSEIG (listed as Homo sapiens)”, for which, in test [1] (HK-2 cells), the “return of phosphorylation to baseline” value is on record as no more than 60 min and the “time to detectable increased phosphorylation” value is listed as no more than 1 min. Also, the JNK phosphorylation result in test [1] (at 60 min) is recorded as “decreased”. In addition, the “necrosis induced with 2 mM H2O2” value in the test with HK-2 cells [2] was “significantly reduced necrosis”. In addition, in the test with HK-2 cells [3], the “cell survival / protection against cisplatin toxicity” value is listed as “improved HK-2 cell survival”.

The values are drawn from patent US10066025B2, “Compositions and methods for detecting, treating and preventing diseases and disorders” (YALE UNIVERSITY, priority 2012, dated 2018).
